Source: patent US20080026996A1, “Selective Vpac2 Receptor Reptide Agonists” (ELI LILLY AND COMPANY, priority 2004, published 2008)
pEC50, pIC50: −log10 of the molar value. Where a SMILES comes first, the peptide text is derived from it. Where no end group is shown, it is not given here. [ ]: non-standard residue; d: D form. The star is where a group is joined. Orn = NCCC[C@H](N)C(=O)O; Hexanoyl = CCCCCC(=O)*; Aib = CC(C)(N)C(=O)O

Columns and labels:
human VPAC2 [1] = target: T1, human VPAC2 (Homo sapiens, UniProt P41587); experiment: Filter binding assay, membranes of stable VPAC2 cell line, 125I-labeled VIP tracer (Table 2); conditions: read-out: Human VPAC2 Receptor Binding
T1 construct: expressed in transfected cells
T1 sequence (P41587 24-438): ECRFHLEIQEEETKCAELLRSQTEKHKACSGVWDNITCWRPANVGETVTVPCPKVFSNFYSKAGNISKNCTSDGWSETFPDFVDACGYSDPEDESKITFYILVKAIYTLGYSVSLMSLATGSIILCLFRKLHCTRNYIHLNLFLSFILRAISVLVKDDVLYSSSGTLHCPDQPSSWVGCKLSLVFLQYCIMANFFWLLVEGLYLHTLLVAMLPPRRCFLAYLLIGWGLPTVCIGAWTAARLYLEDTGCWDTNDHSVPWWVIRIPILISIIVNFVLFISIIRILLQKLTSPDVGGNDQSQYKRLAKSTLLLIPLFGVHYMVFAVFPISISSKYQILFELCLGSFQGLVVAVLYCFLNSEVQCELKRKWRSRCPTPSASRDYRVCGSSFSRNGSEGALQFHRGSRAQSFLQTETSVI
How it was run: (§1)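 Scintillation counting of filter-retained radioligand gave the read-out. Compounds competed with the labelled tracer (about 40000 cpm) for 2.5 μg membranes during 1 hour of shaking in HEPES pH 7.4 buffer containing 0.5% BSA.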

human VPAC2 [2] = target: T1, human VPAC2; experiment: Alpha screen cAMP in vitro potency, human VPAC2 receptor; format: cell-based; conditions: cAMP generation; single result from two analyses performed in a single run; read-out: Human VPAC2 Receptor: Alpha Screen EC50
How it was run: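 Under reduced light, acceptor beads accompany the stimuli during a 60-minute incubation of cells in stimulation buffer (50,000 per well point). Donor beads go in with lysis buffer for a further 60–120 minutes, and the resulting AlphaScreen signal indicates cAMP levels.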

human PAC1 = target: T2, human PAC1 (Homo sapiens, UniProt P41586); experiment: Filter binding assay, membranes of cells transiently transfected with human PAC1, 125I-labeled PACAP-27 tracer (Table 2); parameters: expressed in transfected cells; conditions: read-out: Human PAC1 Receptor Binding
T2 sequence (P41586 21-468): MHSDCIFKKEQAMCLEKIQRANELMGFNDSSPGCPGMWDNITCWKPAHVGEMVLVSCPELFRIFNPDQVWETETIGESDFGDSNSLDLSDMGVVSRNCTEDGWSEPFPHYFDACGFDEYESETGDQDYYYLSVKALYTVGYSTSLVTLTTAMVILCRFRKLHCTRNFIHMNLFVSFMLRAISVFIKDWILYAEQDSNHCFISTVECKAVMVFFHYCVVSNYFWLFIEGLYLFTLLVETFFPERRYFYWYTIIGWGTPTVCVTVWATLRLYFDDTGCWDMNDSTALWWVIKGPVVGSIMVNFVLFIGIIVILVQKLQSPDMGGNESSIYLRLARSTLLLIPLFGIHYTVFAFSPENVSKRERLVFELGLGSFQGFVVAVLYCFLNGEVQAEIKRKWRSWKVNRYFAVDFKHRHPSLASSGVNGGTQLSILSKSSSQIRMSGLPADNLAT
How it was run: as §1

[3] = Rat serum stability studies (remaining active peptide by DiscoveRx cAMP on CHO-VPAC2 cells); format: in vitro ADME
How it was run: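 Rat serum, 18 h: +aprotinin aliquot at 4° C, no-aprotinin aliquot at 37° C. Then 30 min RT step, supernatant removed, 1 h shaking at 300 rpm. DiscoveRx cAMP kit on CHO-VPAC2; EC50 from cAMP data vs standards.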

human VPAC1 = target: T3, human VPAC1 (Homo sapiens, UniProt P32241); experiment: Filter binding assay, membranes of cells transiently transfected with human VPAC1, 125I-labeled VIP tracer (Table 2); parameters: expressed in transfected cells; conditions: read-out: Human VPAC1 Receptor Binding
T3 sequence (P32241 31-457): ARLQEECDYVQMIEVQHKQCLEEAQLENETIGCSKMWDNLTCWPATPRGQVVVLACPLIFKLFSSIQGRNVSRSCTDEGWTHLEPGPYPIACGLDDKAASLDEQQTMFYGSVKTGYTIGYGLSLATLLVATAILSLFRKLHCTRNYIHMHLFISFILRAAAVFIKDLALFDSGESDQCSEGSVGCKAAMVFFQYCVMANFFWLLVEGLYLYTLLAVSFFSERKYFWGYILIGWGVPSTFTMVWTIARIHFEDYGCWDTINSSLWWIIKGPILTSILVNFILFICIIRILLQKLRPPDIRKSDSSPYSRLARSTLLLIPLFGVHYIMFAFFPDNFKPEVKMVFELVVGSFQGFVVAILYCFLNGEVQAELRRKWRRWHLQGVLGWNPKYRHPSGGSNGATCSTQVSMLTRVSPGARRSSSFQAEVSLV
How it was run: as §1

Molecule	pIC50 (human VPAC2 [1])	pEC50 (human VPAC2 [2])	pIC50 (human PAC1)	Rat Serum Stability (estimated purity in % after 18 hours) [3] [%]	pIC50 (human VPAC1)	Rat Serum Stability (Estimated purity in % after 72 hours) [3] [%]
CCCCCC(=O)N[C@@H](Cc1c[nH]cn1)C(=O)N[C@@H](CO)C(=O)N[C@@H](CC(=O)O)C(=O)N[C@@H](C)C(=O)N[C@H](C(=O)N[C@@H](Cc1ccccc1)C(=O)N[C@H](C(=O)N[C@@H](CC(=O)O)C(=O)N[C@@H](CC(N)=O)C(=O)N[C@@H](Cc1ccc(O)cc1)C(=O)N[C@H](C(=O)N[C@@H](CCCNC(=N)N)C(=O)N[C@@H](CC(C)C)C(=O)N[C@@H](CCCNC(=N)N)C(=O)NC(C)(C)C(=O)N[C@@H](CCC(N)=O)C(=O)N[C@H](C(=O)N[C@@H](C)C(=O)N[C@@H](C)C(=O)NC(C)(C)C(=O)N[C@@H](CCCCN)C(=O)N[C@@H](Cc1ccc(O)cc1)C(=O)N[C@@H](CC(C)C)C(=O)N[C@@H](CCC(N)=O)C(=O)N[C@@H](CO)C(=O)N[C@H](C(=O)N[C@@H](CCCCN)C(=O)N[C@@H](CCC(N)=O)C(=O)NCC(=O)NCC(=O)N1CCC[C@H]1C(=O)N[C@@H](CO)C(=O)N[C@@H](CO)C(=O)NCC(=O)N[C@@H](C)C(=O)N1CCC[C@H]1C(=O)N1CCC[C@H]1C(=O)N1CCC[C@H]1C(=O)N[C@@H](CO)C(=O)O)[C@@H](C)CC)C(C)C)[C@@H](C)O)[C@@H](C)O)C(C)C [Agonist P297] (Hexanoyl-HSDAVFTDNYTRLR[Aib]QVAA[Aib]KYLQSIKQGGPSSGAPPPS-OH; C-terminus assumed)	8.71	9.44	< 4.60	21.17	< 5.52	
Hexanoyl-HSDAVFTEEYTRLQKQVAAKQYLQSIKNKRYGGPSSGAPPPS [Agonist P165]	7.74	9.03	5.54	7.28	6.31	
Hexanoyl-HSDAVFTDNYTRLRKQVAAKKYAQSIKNKRYGGPSSGAPPPS [Agonist P235]	8.83	9.09	5.95	2.62	5.87	
Hexanoyl-HSDAVFTDNYTRLRKQVAAKKYFQSIKNKRYGGPSSGAPPPS [Agonist P231]	9.26	9.59	6.52	0.57	6.34	
Hexanoyl-HSDAVFTDNYTRLRKQVAAVKYLQSIKNKRYGGPSSGAPPPS [Agonist P146]	9.28	9.77	5.81	0.53	6.40	
Hexanoyl-HSDAVFTDNYTRLQ[Aib]QVAAKKYLQSIKNKRYGGPSSGAPPPS [Agonist P258]	9.20	9.77	< 4.60	9.47	< 5.52	
Hexanoyl-HSDAVFTDNYTRLL[Aib]QVAA[Aib]KYLQSIKNKRYGGPSSGAPPPS [Agonist P317]	8.91	9.44	< 4.60	33.34	< 5.52	21.5
Hexanoyl-HSDAVFTDNYTRLRKQVAAKKYWQSIKNKRYGGPSSGAPPPS [Agonist P230]	9.12	9.52	6.33	0.53	6.18	
Hexanoyl-HSDAVFTDNYTRLQKQVAAQKYLQSIKNKRYGGPSSGAPPPS [Agonist P252]	9.01	9.59	< 4.60	1.19	5.93	
Hexanoyl-HSDAVFTDNYTRLRKQLAAKKYLQSIKNKRYGGPSSGAPPPS [Agonist P290]	9.57	9.66	6.68	0.11	6.66	
Hexanoyl-HSDAVFTDNYTRL[Orn][Aib]QVAA[Aib]KYLQSIKNKRYGGPSSGAPPPS [Agonist P319]	9.16	9.59	< 4.60	13.53	< 5.52	
Hexanoyl-HSDAVFTDNYTRLR[Orn]QVAAKKYLQSIKNKRYGGPSSGAPPPS [Agonist P307]	9.55	9.49	6.53	0.32	6.56	
Hexanoyl-HSDAVFTDNYTRLR[Aib]QVAALKYLQSIKNKRYGGPSSGAPPPS [Agonist P265]	9.17	9.68	< 4.60	8.70	< 5.52	
Hexanoyl-HSDAVFTDNYTRL[Aib]KQVAAKKYLQSIKNKRYGGPSSGAPPPS [Agonist P167]	8.94	9.77	6.00	14.98	5.94	
Hexanoyl-HSDAVFTDNYTRLAKQVAAKKYLQSIKNKRYGGPSSGAPPPS [Agonist P173]	9.26	9.60	6.12	1.04	5.75	
Hexanoyl-HSDAVFTDNYTRLRKQVAAKFYLQSIKNKRYGGPSSGAPPPS [Agonist P186]	9.06	9.82	6.50	0.25	6.08	
Hexanoyl-HSDAVFTDNYTRLRKQVALKKYLQSIKNKRYGGPSSGAPPPS [Agonist P155]	9.15	9.62	6.83	0.25	6.64	
Hexanoyl-HSDAVFTDNYTRLQKQVAA[Aib]KYLQSIKNKRYGGPSSGAPPPS [Agonist P250]	9.20	9.74	< 4.60	7.11	6.07	
Hexanoyl-HSDAVFTDNYTRLRK(Ac)QVAAK(Ac)KYLQSIKNKRYGGPSSGAPPPS [Agonist P193]	9.43	9.74	6.27	0.25	6.60	
